One data set deals with anti-NMDAR encephalitis. Briefly: Case study: tramadol pre-treatment with therapeutic plasma exchange (PLEX) in a patient with anti-NMDAR encephalitis. The class given is in vivo, human. From the text: Described herein is a previously healthy person with newly diagnosed seizures and schizophrenia. […] At that time, they were started on solumedrol 1 g each day for five days along with the last two days of the steroid course being completed. […] Their anti-epileptic medications were escalated to include levetiracetam, phenobarbital, and lacosimide.
The assay used a semi-quantitative indirect immunofluorescence on human embryonic kidney cell cultures expressing recombinant NMDA receptors (transfected HEK 293 cells). […] NMDA receptor antibodies were not sent from their serum. […] Six days after their colectomy, PLEX was restarted for another five sessions.

The conditions of data set [1]: oral formulation; Grond and Sablotzki 2004; cited from earlier work.
For data set [2] the following is noted: Grond and Sablotzki 2004; cited from earlier work.
The mark [3] stands for this setting: PLEX in combination with tramadol 100 mg enterally three times a day.

As for `CNC1(c2ccccc2Cl)CCCCC1=O` (stereo not shown) [ketamine], in the data set on anti-NMDAR encephalitis (ketamine at 20 mcg/kg/min, patient obtunded and not following commands), the “facial dyskinesias during the first three PLEX sessions (without tramadol)” value is listed as “minimal improvement”.

For the molecule `C[C@H]1C[C@@H]2[C@H]([C@@H](O)C[C@@]3(C)[C@H]2CC[C@]3(O)C(=O)COC(=O)CCC(=O)O)[C@@]2(C)C=CC(=O)C=C12` [solumedrol], in the data set with anti-NMDAR encephalitis (solumedrol 1 g each day for five days), the “improvement of symptoms after steroid course” value was “failed to improve any of their symptoms”.

In the case of `COc1cccc(C2(O)CCCCC2CN(C)C)c1` (stereo not shown) [tramadol, 2-(dimethylaminomethyl)-1-(3-methoxyphenyl)cyclohexanol], in the data set on anti-NMDAR encephalitis (setting [3]), the “facial dyskinesias by the end of the fifth PLEX session” value is “completely resolved”; the “following commands by the end of the third PLEX session” value was “began to follow commands”; the “level of consciousness by the end of the fifth PLEX session” value was “alert and awake enough to interact with their care providers”. For the same molecule, the “overall safety and efficacy in anti-NMDAR encephalitis” value in the data set with anti-NMDAR encephalitis (conclusion of the case study) is “safe and an effective treatment”. In the data set on anti-NMDAR encephalitis (nine months after symptoms onset), the “recurrence of symptoms at follow up” value is “has not had any recurrent symptoms”. Also, the “facial dyskinesias after the first PLEX session” value with anti-NMDAR encephalitis (patient, tramadol 100 mg enterally three times a day, one hour before each of five PLEX sessions) is given as “resolved”. In addition, in the data set on anti-NMDAR encephalitis (tramadol 100 mg enterally three times a day, one hour before each PLEX session), the “eye opening immediately following the first PLEX session” value is reported as “opened their eyes spontaneously”. Also, in data set [1], the absorption result was “completely absorbed”, the “brain concentration versus plasma” value is “higher brain concentration than in plasma” and the peak onset result is given as “approximately 60 min”. Moreover, the “patients with serious side effects (hypotension, circulatory collapse, pruritis, sleep disorders, somnolence, abdominal pain, tachycardia)” value in data set [2] is “less than 1%”.

The record behind these values is patent US10898451B2 (Board of Regents of the University of Texas System, priority 2018, dated 2021).
